The record followed here is paper PMC8151276, “An Integrated Approach toward NanoBRET Tracers for Analysis of GPCR Ligand Engagement” (Molecules, 2021).

The assay concerns the target T1, OPRD1 (Homo sapiens, UniProt P41143).
T1 construct: purchased Promega (in-house HiBiT-GPCR construct library, NanoBRET)
Briefly: NanoBRET screen HiBiT-OPRD1 in HEK293. In kind it is binding. How it is done: Each tracer candidate was screened across the entire library of HiBiT-GPCR constructs using NanoBRET as the detection modality. As depicted in Figure 4A, the specificity of interactions was evaluated through decrease in BRET due to competitive displacement of a bound tracer by excess parental compound. Each tracer was analyzed for binding to each HiBiT-GPCR fusion in the absence and in the presence of competing parental compound. Briefly, HEK293 cells were transfected with HiBiT-GPCR constructs diluted into promoterless DNA to reduce expression and maximize translocation to the cell surface. Each tracer candidate was then screened at concentrations of 1 μM and 0.1 μM across cells expressing these fusions. Cells were treated for 1.5 h with tracer either alone or in the presence of 20 μM competing parental compound (i.e., control). BRET was measured upon addition of purified LgBiT and subsequent complementation with HiBiT genetically fused to a GPCR. The specificity of interactions was assessed through a decrease in BRET signal due to competitive displacement of the bound tracer. To further gauge the robustness of these interactions, the fold response over the control (i.e., BRETtracer/BRETcontrol) was calculated. We chose a 1.5-fold response, which translates to ≥7-fold signal over noise as the minimal threshold required to score an interaction as positive.
HiBiT-GPCR DNA constructs were diluted in 10 mM Tris pH 8 to a final concentration of 0.01 μg/μL, arrayed in 96-well plates and stored at −20 °C. For transfection, HEK293 cells were suspended in Opti-MEM (without phenol red) supplemented with 2% fetal bovine serum (Seradigm) and 100 units/mL penicillin–streptomycin (Gibco) at a final concentration of 220,000 cells/mL and dispensed into white 96-well plates at 90 μL/well. Subsequent transfections and screens were carried using an Agilent Bravo Automated Liquid Handling Platform. First, the 96-well HiBiT DNA arrays were diluted 25-fold in Opti-MEM (without serum or phenol red) to a final concentration of 0.0004 μg/μL and 20 μL of the diluted DNAs were transferred into new 96-well plates. Next, promoterless carrier DNA (1 μg/μL) was diluted 25-fold (0.04 μg/μL) and then dispensed into the diluted arrays at 20 μL/well. Following brief mixing, Viafect transfection reagent (Promega) diluted 16-fold into Opti-MEM was dispensed into the plates at 40 μL/well. After mixing by pipetting, plates were incubated for 10 min on the pipetting station deck. The DNA-transfection reagent complexes were then added to plates containing cells. To facilitate the screen, 10 μL of DNA-transfection reagent complexes were added in duplicates to the top 4 and bottom 4 rows, resulting in two identical 48-well arrays per plate. Plates with transfected cells were incubated for 18–20 h at 37 °C/5% CO2. A screen of each tracer across the entire library using two different concentrations requires duplicate plates of transfected cells. Depending on the number of tracers being screened, transfections can be scaled up using the same ratios. The next day, for each tracer, four 20× screening solutions in tracer dilution buffer (Promega) were prepared: two duplicates at final concentration of 20 μM and two duplicates at a final concentration of 2 μM. […] The four resulting solutions were diluted 4-fold in Opti-MEM without serum or phenol red to generate 5× solutions (5 µM and 0.5 µM tracer +/− 100 μM competing compound). To screen the library, a BioTek MultiFlo FX liquid dispenser was used to dispense 22.5 µL of tracer solution to the top 4 rows and 22.5 µL tracer + competing compound solution to the 4 bottom rows. Plates were briefly mixed on an orbital shaker and incubated for 1.5 h at room temperature. […] Plates were briefly mixed on an orbital shaker and incubated for 15 min to allow complementation.
(In general: Bioluminescence resonance energy transfer reports proximity on the nanometre scale.)

T1 sequence (P41143 whole entry): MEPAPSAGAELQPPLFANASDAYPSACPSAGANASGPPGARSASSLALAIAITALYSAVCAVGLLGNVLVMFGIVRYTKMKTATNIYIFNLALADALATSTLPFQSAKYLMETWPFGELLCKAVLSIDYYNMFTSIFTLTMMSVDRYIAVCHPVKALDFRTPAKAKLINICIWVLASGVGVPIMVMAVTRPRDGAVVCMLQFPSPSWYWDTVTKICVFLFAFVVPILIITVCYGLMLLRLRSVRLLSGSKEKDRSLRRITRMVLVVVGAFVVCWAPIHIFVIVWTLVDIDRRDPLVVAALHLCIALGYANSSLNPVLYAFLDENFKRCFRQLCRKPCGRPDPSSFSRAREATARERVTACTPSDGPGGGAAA

Consider `COc1ccc2c(n1)c(CCNC(C)=O)cn2CCNC(=O)CCc1ccc2n1[B-](F)(F)[N+]1=C(c3ccc[nH]3)C=CC1=C2` [Azamelatonin-1-NB590], for which the “NanoBRET Fold Response” value runs as follows: (0.1μM tracer) 1.00; (1μM tracer) 1.00.
As to `CC(C)N(CC[C@H](c1ccccc1)c1cc(CCNC(=O)c2ccc(CNC(=O)CCc3ccc4n3[B-](F)(F)[N+]3=C(c5ccc[nH]5)C=CC3=C4)cc2)ccc1O)C(C)C` [Tolterodine-BZ-NB590], the “NanoBRET Fold Response” value came to 1.06 (OPRD1, tracer 0.1μM) and 1.05 (OPRD1, tracer 1μM).
For the molecule `O=C(CCc1ccc2n1[B-](F)(F)[N+]1=C(c3ccc[nH]3)C=CC1=C2)NCCOCCOCCNC(=O)OCCOCCN1CCN(C2=Nc3ccccc3Sc3ccccc32)CC1` [Quetiapine-a-2-NB590], the “NanoBRET Fold Response” value is 1.11 (OPRD1, tracer 0.1μM) and 0.89 (OPRD1, tracer 1μM).
For `Cc1cc2c(s1)Nc1ccccc1N=C2N1CCN(CCCNC(=O)CCOCCOCCOCCOCCNC(=O)CCc2ccc3n2[B-](F)(F)[N+]2=C(c4ccc[nH]4)C=CC2=C3)CC1` [Olanzapine-a-2-NB590] the same measures were 0.95 and 1.09.
Take `O=C(CCc1ccc2n1[B-](F)(F)[N+]1=C(c3ccc[nH]3)C=CC1=C2)NCc1ccc(C(=O)NCCOCCOCCNCC(O)COc2cccc3ccccc23)cc1` (stereo not drawn) [Propranolol-3-NB590]: the “NanoBRET Fold Response” value reads like this: (OPRD1, 0.1μM) 0.97; (OPRD1, 1μM) 1.01.
For the molecule `N#CN/C(=N\CCNC(=O)c1ccc(N)cc1)NCCCOc1cccc(CN2CCCCC2)c1` [Aminopotentidine (unmodified)], the “NanoBRET Fold Response” value is, setting by setting: (OPRD1, other tracers/Aminopotentidine (unmodified), 0.1μM) 1.25; (OPRD1, other tracers/Aminopotentidine (unmodified), 1μM) 1.01.
For the molecule `CN1CCN(C2=Nc3cc(Cl)ccc3N(CC(=O)NCCOCCOCCOCCOCCNC(=O)CCc3ccc4n3[B-](F)(F)[N+]3=C(c5ccc[nH]5)C=CC3=C4)c3ccccc32)CC1` [Clozapine-c-2-NB590], the “NanoBRET Fold Response” value is, setting by setting: (OPRD1, 0.1μM tracer) 0.99; (OPRD1, 1μM tracer) 0.92.
In the case of `O=C(CCc1ccc2n1[B-](F)(F)[N+]1=C(c3ccc[nH]3)C=CC1=C2)NCc1ccc(C(=O)NCCOCCC(=O)N[C@@H]2CC[C@@]3(O)[C@H]4Cc5ccc(O)c6c5[C@@]3(CCN4CC3CC3)[C@H]2O6)cc1` [Naltrexone-3-NB590], the “NanoBRET Fold Response” value is 1.81 (OPRD1, tracer 0.1μM) and 1.52 (OPRD1, tracer 1μM).
Consider `CC(C)N(CC[C@H](c1ccccc1)c1cc(CCNC(=O)CCOCCOCCOCCOCCNC(=O)CCc2ccc3n2[B-](F)(F)[N+]2=C(c4ccc[nH]4)C=CC2=C3)ccc1O)C(C)C` [Tolterodine-2-NB590], for which the “NanoBRET Fold Response” value (OPRD1, tracer 0.1μM) was found to be 1.00 and the “NanoBRET Fold Response” value (OPRD1, tracer 1μM) was 0.94.
The corresponding values for `Cc1nc2n(c(=O)c1CCN1CCC(c3noc4cc(F)ccc34)CC1)CCCC2OC(=O)NCCOCCOCCOCCOCCNC(=O)CCc1ccc2n1[B-](F)(F)[N+]1=C(c3ccc[nH]3)C=CC1=C2` (stereo not drawn) [Risperidone-2-NB590] are 0.99 and 0.99.
For `O=C(CCOCCOCCOCCOCCNC(=O)CCc1ccc2n1[B-](F)(F)[N+]1=C(c3ccc[nH]3)C=CC1=C2)NCCCN1CCN(C2=Nc3cc(Cl)ccc3Nc3ccccc32)CC1` [Clozapine-a-2-NB590], the “NanoBRET Fold Response” value was 1.04 (OPRD1, 0.1μM tracer) and 0.95 (OPRD1, 1μM tracer).
On to `COc1ccc2[nH]c(-c3ccc(CNC(=O)CCOCCOCCOCCOCCNC(=O)CCc4ccc5n4[B-](F)(F)[N+]4=C(c6ccc[nH]6)C=CC4=C5)cc3)c(CCNC(C)=O)c2n1` [AzomelatoninICO9-2-NB590], for which the “NanoBRET Fold Response” value (0.1μM tracer) is given as 1.06 and the “NanoBRET Fold Response” value (1μM tracer) was determined as 1.03.
Turning to `CN1CCN(C2=Nc3cc(Cl)ccc3Nc3ccc(CNC(=O)CCOCCOCCOCCOCCNC(=O)CCc4ccc5n4[B-](F)(F)[N+]4=C(c6ccc[nH]6)C=CC4=C5)cc32)CC1` [Clozapine-b-2-NB590], the “NanoBRET Fold Response” value came to 1.02 (OPRD1, 0.1μM tracer) and 0.99 (OPRD1, 1μM tracer).
Consider `COc1ccccc1N1CCN(CCCCN2C(=O)c3ccc(CNC(=O)CCOCCNC(=O)c4ccc(CNC(=O)CCc5ccc6n5[B-](F)(F)[N+]5=C(c7ccc[nH]7)C=CC5=C6)cc4)cc3C2=O)CC1` [NAN-190-3-NB590], for which the “NanoBRET Fold Response” value (OPRD1, tracer 0.1μM) is given as 0.79 and the “NanoBRET Fold Response” value (OPRD1, tracer 1μM) is reported as 1.17.
As to `N#CN=C(NCCCOc1cccc(CN2CCCCC2)c1)NCCNC(=O)CCOCCOCCOCCOCCNC(=O)CCc1ccc2n1[B-](F)(F)[N+]1=C(c3ccc[nH]3)C=CC1=C2` [Aminopotentidine-2-NB590], the “NanoBRET Fold Response” value runs as follows: (OPRD1, tracer 0.1μM) 1.05; (OPRD1, tracer 1μM) 1.02.
In the case of `CN(C)CCC=C1c2ccccc2CCc2ccc(C(=O)NCCNC(=O)CCOCCOCCOCCOCCNC(=O)CCc3ccc4n3[B-](F)(F)[N+]3=C(c5ccc[nH]5)C=CC3=C4)cc21` [Amitriptyline-b-2-NB590], the “NanoBRET Fold Response” value reads like this: (tracer at 0.1μM, listed as amitriptyline-b-2-NB590) 1.01; (tracer at 1μM, listed as amitriptyline-b-2-NB590) 1.01.
As to `COc1ccccc1N1CCN(CCCCN2C(=O)c3ccc(CNC(=O)CCOCCOCCOCCOCCNC(=O)CCc4ccc5n4[B-](F)(F)[N+]4=C(c6ccc[nH]6)C=CC4=C5)cc3C2=O)CC1` [NAN-190-2-NB590], the “NanoBRET Fold Response” value (OPRD1, tracer 0.1μM) was found to be 0.98.
With `O=C(CCOCCOCCOCCOCCNC(=O)CCc1ccc2n1[B-](F)(F)[N+]1=C(c3ccc[nH]3)C=CC1=C2)NCCCN1CCN(C2=Nc3ccccc3Oc3ccc(Cl)cc32)CC1` [Loxapine-a-2-NB590], the “NanoBRET Fold Response” value is, setting by setting: (OPRD1, tracer 0.1μM) 1.01; (OPRD1, tracer 1μM) 1.04.
For the molecule `CN(CCC=C1c2ccccc2CCc2ccccc21)C(=O)CCOCCOCCOCCOCCNC(=O)CCc1ccc2n1[B-](F)(F)[N+]1=C(c3ccc[nH]3)C=CC1=C2` [Amitriptyline-e-2-NB590], for the setting “tracer at 1μM”, the “NanoBRET Fold Response” value is reported as 1.01.
As for `CCCn1c(=O)c2[nH]c(-c3ccc(OCC(=O)NCCNC(=O)CCOCCNC(=O)c4ccc(CNC(=O)CCc5ccc6n5[B-](F)(F)[N+]5=C(c7ccc[nH]7)C=CC5=C6)cc4)cc3)nc2n(CCC)c1=O` [XAC-3-NB590], the “NanoBRET Fold Response” value is reported as 0.97 (OPRD1, tracer 0.1μM) and 0.81 (OPRD1, tracer 1μM).
Consider `CN(C)CCC=C1c2ccccc2CCc2ccc(C(=O)NCCNC(=O)CCOCCOCCOCCOCCNC(=O)CCc3ccc4n3[B-](F)(F)[N+]3=C(c5ccc[nH]5)C=CC3=C4)cc21` [Amitriptyline-a-2-NB590], for which the “NanoBRET Fold Response” value by setting is: (tracer at 0.1μM) 0.99; (tracer at 1μM) 0.91.
Consider `CCOC(=O)c1cc(C#N)c(N2CCC(C(=O)NS(=O)(=O)Cc3ccccc3/C=C/C(=O)NCCNC(=O)CCc3ccc4n3[B-](F)(F)[N+]3=C(c5ccc[nH]5)C=CC3=C4)CC2)nc1C` [AZD1283-1-NB590], for which the “NanoBRET Fold Response” value turned out to be 1.09 (OPRD1, 0.1μM) and 1.08 (OPRD1, 1μM).
